According to US20070224154A1, “Methods of reducing skin irritation” (ACCESS BUSINESS GROUP INTERNATIONAL, LLC, priority 2006, published 2007):

Test system: IL-1 alpha secretion by cocultures of fibroblasts and keratinocytes
Experiment: IL-1 alpha assay: ELISA of IL-1α secreted by fibroblast/keratinocyte cocultures exposed to a surfactant irritant with botanical added
Type: cell-based, human
Settings: hand dishwashing detergent; for Percent IL-1 α Reduction AVG: average of 1%, 0.1%, 0.01%
Source text: IL-1 alpha is one cytokine often released near the beginning of the inflammation cascade, which ultimately leads to a human biological response resulting in visible and/or perceptual signs of irritation. Accordingly, by reducing the initial response to an irritant, such as a surfactant, the ultimate damaging reaction can be reduced, prevented, and/or eliminated.
The procedure for conducting IL-1 alpha assays is as follows: Cocultures of fibroblasts and keratinocytes, the primary cell types found in skin, are established using 100,000 fibroblasts and 200,000 keratinocytes per well. These types of cells are those found in the outer layers of the skin exposed to detergent during every day use. An irritant, for example the surfactant package used in a dish detergent (Example 1 below), is then applied to the coculture wells to initiate the production and secretion of pro-inflammatory cytokines by the cells. One such cytokine is human interleukin-1 alpha or IL-1α. In the body, this protein is a key mediator of the host response to infections and various inflammatory challenges. Once produced, IL-1α stimulates production of other pro-inflammatory cytokines and bioactive molecules. Together, these biological molecules send the message that something is wrong and the keratinocytes and fibroblasts need help. This is called the inflammatory response.
The amount of secreted IL-1α is directly related to the intensity of the inflammatory response. In vitro, the concentration of IL-1α secreted by the coculture cells in response to the irritant can be measured via a precise laboratory technique known as an Enzyme Linked Immuno-Sorbent Assay or ELISA. Thus, to test botanical materials for mildness, a lessening of IL-1α secretion, the mildness agents were added with the chemical irritant. When a reduction in IL-1α expression was observed, the mildness agents were successful. Theoretically, there are several mechanisms by which this could have been achieved at the cellular level. Without wishing to be bound to a particular theory or in any way limit the scope of the appended claims or their equivalents, it is presently believed that these mechanisms may include one or more of the following: the mildness agent could block the transcription of the DNA to RNA, translation of the RNA to protein, and/or release of the IL-1α from the cells. […] The mildness agent may also have stopped the cascade after the irritant works on the cell. Whatever the mechanism, the net result is the same. There is less IL-1α released by the cells which correlates to inhibition of events in the inflammatory cascade and ultimately, less inflammation.
These were prepared using a serial dilution technique: 1.0 g botanical was mixed well with 99.0 g dish detergent to give the 1.0% formulation; next, 10.0 g of the 1.0% solution was mixed well with 90.0 g of the dish detergent to give the 0.1% formulation; finally, 10.0 g of the 0.1% solution was mixed well with 90.0 g of the dish detergent to give the 0.01% formulation.

| Molecule | Percent IL-1 α Reduction AVG | Percent IL-1 α Reduction (botanical 0.01% by weight) | Percent IL-1 α Reduction (botanical 0.1% by weight) | Percent IL-1 α Reduction (botanical 1% by weight) |
| --- | --- | --- | --- | --- |
| Vitamin B12 | 9.17% | 17.70% | −3.20% | 13.00% |
| CC(C)=CCC[C@](C)(O)[C@@H]1CC=C(C)CC1 [Alpha bisabolol, (−)-α-bisabolol] | 6.67% | 19.00% | 2.00% | −1.00% |
| glutaurylamidoethyl indole [GLISTIN] | 22.63% | 18.50% | 31.80% | 17.60% |
| Catechin | 17.43% | 19.50% | 24.90% | 7.90% |
| O=C(/C=C/c1ccc(O)c(O)c1)O[C@H](Cc1ccc(O)c(O)c1)C(=O)O [Rosmarinic Acid] | 28.80% | 34.5% | 31.8% | 20.1% |
| Oc1cc(O)c2c(c1)O[C@H](c1ccc(O)c(O)c1)[C@H](O)C2 [Epicatechin] | 29.97% | 26.2% | 22.1% | 41.6% |
| Dimethylsilanol Hyaluronate [AMINO DL-30] | 12.07% | 21.81% | 7.18% | 7.22% |
| CCCCCCCCCCCCCCCCCCOC(=O)[C@@]1(C)CC[C@]2(C)CC[C@]3(C)C(=CC(=O)[C@@H]4[C@@]5(C)CC[C@H](O)C(C)(C)[C@@H]5CC[C@]43C)[C@@H]2C1 [NET-STG, stearyl glycyrrhetinate] | 13.10% | 14.70% | 11.40% | 13.20% |
| CC(=O)Oc1c(C)c(C)c2c(c1C)CCC(C)(CCC[C@H](C)CCC[C@H](C)CCCC(C)C)O2 (stereo partly shown) [Vitamin E acetate] | 26.73% | 25.80% | 27.50% | 26.90% |
| Dimethiconol Panthenol [D.S.H. C N] | 19.31% | 22.25% | 16.43% | 19.24% |
| O=C1O[C@H]([C@@H](O)CO)C([O-])=C1OP(=O)([O-])[O-].O=C1O[C@H]([C@@H](O)CO)C([O-])=C1OP(=O)([O-])[O-].[Mg+2].[Mg+2].[Mg+2] [VC-PMG, Magnesium Ascorbyl Phosphate] | 21.93% | 29.70% | 23.80% | 12.30% |
| Ceramide | 7.73% | −0.60% | 14.70% | 9.10% |
| O=C1O[C@H]([C@@H](O)CO)C(O)=C1O [Vitamin C] | 7.33% | 10.30% | 8.50% | 3.20% |
| O=C(O[C@@H]1Cc2c(O)cc(O)cc2O[C@@H]1c1cc(O)c(O)c(O)c1)c1cc(O)c(O)c(O)c1 [EGCG, epigallocatechin gallate] | 10.50% | 12.50% | 12.10% | 6.90% |
| CC(C)=CCCC(C)=CCCC(C)=CCO [Farnesol] | 19.10% | 14.50% | 15.50% | 27.30% |
| O=P(O)(O)O[C@H]1[C@H](OP(=O)(O)O)[C@@H](OP(=O)(O)O)[C@H](OP(=O)(O)O)[C@@H](OP(=O)(O)O)[C@H]1OP(=O)(O)O [PHYTIC ACID EXTREME, phytic acid] | 14.16% | 15.01% | 12.56% | 14.91% |
